Data set [1] can be described thus: Biodegradability in accordance with OECD 301 B. On the procedure:
(§1) For the cationic surfactant type 1 from Table 2, the biodegradability and toxicity was determined in accordance with OECD 301 B against algae.

For a further data set, the system named is algae. The format is cell-based. Here is the method: as §1

Turning to `CCCCCCCCCCCCCCCCCCCCCC[N+](C)(C)C.[Cl-]` [behentrimonium chloride], the Biodegradability result in data set [1] was “not degraded”. The Toxicity towards algae in the data set on algae was under 1 mg/L.

Values taken from patent US20110014148A1, “Cationic Surfactants Having Improved Properties” (COGNIS IP MANAGEMENT GMBH, priority 2008, published 2011).
